According to PubChem BioAssay AID2305 (GlaxoSmithKline (GSK), 2010):

Tested on: P. falciparum 3D7 growth, pLDH absorbance
Test: P. falciparum 3D7 growth inhibition, dose response, strain 3D7 (AID 2305)

| Structure (SMILES) | IC50 |
| --- | --- |
| O=C(NCCN1CCCC1)c1cccc(-c2ccc(-c3nc4ccc(F)cc4[nH]3)cc2)c1 | 720 nM |
| O=c1cc(NCCCNCc2ccc(Cl)c(Cl)c2)[nH]c2ccc(Oc3ccccc3)cc12 | 850 nM |
| Cc1ncccc1C(=O)Nc1cccc(-c2cccc(-c3nc4ccc(C(F)(F)F)cc4[nH]3)c2)c1 | 600 nM |
| O=C(NC1CCC(CN2CCC(c3c[nH]c4ccccc34)CC2)CC1)[C@H]1Cc2ccccc2CN1 (some centres undefined) | 950 nM |
| Nc1c2c(nc3ccc(NC(=O)c4ccccc4)cc13)CCCC2 | 610 nM |
| CCCn1c(SCC(=O)Nc2cc(C(F)(F)F)ccc2Cl)n[nH]c1=O | 220 nM |
| Cc1cccc2[nH]c(-c3cccc(-c4ccc(CNCc5ccc(S(C)(=O)=O)cc5)cc4)c3)nc12 | 180 nM |
| N#Cc1cccc(CN2CCCN(Cc3cccc(C(=O)Nc4ccc(Cl)cc4)c3)CC2)c1 | 1180 nM |
| CC(=O)Nc1ccc(C(=O)Nc2cccc(-c3ccc(-c4nc5ccc(C(F)(F)F)cc5[nH]4)cc3)c2)cn1 | 230 nM |
| O=c1cc(NCCC2CC=CCN2Cc2ccc(Cl)c(Cl)c2)[nH]c2ccccc12 (centres undefined) | 1730 nM |
| COCCN1CCN(Cc2ccc(-c3ccc(-c4nc5ccc(F)cc5[nH]4)cc3)cc2)CC1 | 720 nM |
| COCCNCc1cccc(-c2ccc(CN(C(=O)NC3CCCCC3)C3CCN(Cc4ccccc4)CC3)cc2)c1 | 760 nM |
| CCc1ccc(CN2CCC(CN(c3ccc(N4CCOCC4)c(F)c3)S(=O)(=O)c3ccc(C(C)(C)CC)cc3)CC2)cc1 | 710 nM |
| O=C(Nc1ccc2c(c1)CCN2C1CCN(Cc2cccc3cc[nH]c23)C1)c1ccco1 (centres undefined) | 1210 nM |
| CCOC(=O)c1c(C)n(C2CCCCC2)c2cc(Br)c(O)cc12 | 820 nM |
| COc1cc2nc(C)nc(Nc3ccc4c(ccn4Cc4ccccc4)c3)c2cc1OC | 560 nM |
| CCc1ccc(C2CCN(CCCCNC(=O)c3ccc(-c4ccc(Cl)cc4)cc3)CC2)c(O)c1 | 890 nM |
| CC(C)(C)CCN1CCC(CNC(=O)c2cc(-c3cccc(C(F)(F)F)c3)cs2)C1 (centres undefined) | 890 nM |
| CC[C@H]1CN2CCc3cc(OC)c(OC)cc3[C@@H]2C[C@@H]1C[C@H]1NCCc2c1cc(OC)c(O)c2I | 220 nM |
| COc1ccc(CN(C)CCCc2ccc(NC(=O)Cc3ccc4nc(-c5ccccc5)ccc4c3)cc2)cc1OC | 530 nM |

| Structure (SMILES) | IC50 |
| --- | --- |
| CC(C)(C)c1ccc(CNC(=O)c2cc(CNC3CCC(N)CC3)ccc2O)cc1 (centres undefined) | 1030 nM |
| CCCCCCN1CCCN(Cc2ccc(C(=O)Nc3ccc(F)c(F)c3)cc2)CC1 | 610 nM |
| CC1=CC(=O)[C@@H](O)[C@]2(C)[C@H]3[C@@]4(O)OC[C@@]35[C@@H](C[C@@H]12)OC(=O)C[C@H]5[C@@H](C)[C@H]4O | 350 nM |
| CCN(CCCN1CCCCC1)c1cc(C)nc(Nc2ccc(C)c(C)c2)n1 | 1020 nM |
| CN(c1cc(NC(=O)c2cccs2)ccn1)C1CCN(Cc2cccc(C#N)c2)CC1 | 1260 nM |
| CC(C)(CC1CCCCC1)NC(=O)[C@H](CC1CCCCC1)Nc1ccc(C#N)c2ccccc12 | 590 nM |
| Cc1c2ccncc2c(C)c2c1[nH]c1cc(Cc3ccccc3)c(O)cc12 | 150 nM |
| O=C(Nc1ccnc2ccccc12)NC1CCN(Cc2ccccc2)CC1 | 990 nM |
| CCCC(=O)NC(c1ccc(C)cc1)c1ccc2cccnc2c1O (centres undefined) | 960 nM |
| CC(Oc1ccc(Cl)cc1)C(=O)Nc1cc(C(F)(F)F)ccc1-n1cncn1 (centres undefined) | 150 nM |
| COc1ccc2[nH]cc(C3=CCN(C[C@H]4C[C@@H]4C(=O)c4ccccc4)CC3)c2n1 | 270 nM |
| Cc1sc(N2CCCCC2)nc1C(=O)Nc1ccc(F)cc1C(F)(F)F | 1150 nM |
| CC(CNC1CCN(CCn2c(=O)ccc3ccc(F)cc32)CC1)c1ccccc1 (centres undefined) | 1270 nM |
| FC(F)(F)c1ccc(-c2ccc(CNC3CCN(CCN4CCOCC4)CC3)cc2)cc1 | 760 nM |
| CCOC(=O)c1cccc(N/C(N)=N/c2nc(C)cc(NCCc3ccccc3)n2)c1 | 680 nM |
| O=C(c1cc(C(=O)Nc2ccccc2F)c(=O)n(-c2ccccc2F)c1)c1cc(Cl)ccc1O | 710 nM |
| COc1ccc(C2CNCc3c2cc(OC)c(OC)c3Cl)cc1 (centres undefined) | 730 nM |
| CN1CCCC(OC(=O)c2ccccc2)C1 (centres undefined) | 760 nM |
| CS(=O)(=O)Cc1ccc(Nc2ncc(Cl)c(Nc3cccnc3C(N)=O)n2)cc1 | 870 nM |
